Measurements from US12599136B2, “Substituted isophthalic acid diamides and their use as herbicides” (Bayer Aktiengesellschaft, priority 2020, dated 2026).

Key:
Type in all cases: in vivo
[1] = tested on: Setaria viridis; experiment: Pre-emergence herbicidal action against SETVI
Method in brief: (§1)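 Seeds sown in sandy loam, soil-covered; compound sprayed on soil surface pre-emergence. Application: WP/EC, 600–800 l/ha, 0.2% wetting agent. Readout: visual % damage at 3 weeks.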

[2] = tested on: Cyperus esculentus; experiment: Post-emergence herbicidal action against CYPES; conditions: visual assessment about 3 weeks after treatment
Method in brief: (§2)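 Sandy loam, greenhouse; treatment 2–3 weeks after sowing, one-leaf stage. Aqueous suspension or emulsion from WP/EC sprayed on foliage (600–800 l/ha, 0.2% wetting agent). Readout: visual % action, ~3 weeks.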

[3] = tested on: Abutilon theophrasti; experiment: Pre-emergence herbicidal action against ABUTH; conditions: visual score after 3 weeks vs untreated controls
Method in brief: as §1

[4] = tested on: Echinochloa crus-galli; experiment: Pre-emergence herbicidal action against ECHCG; conditions: visual score after 3 weeks vs untreated controls
Method in brief: as §1

[5] = tested on: Alopecurus myosuroides; experiment: Pre-emergence herbicidal action against ALOMY; conditions: visual score after 3 weeks vs untreated controls
Method in brief: as §1

[6] = tested on: Veronica persica; experiment: Pre-emergence herbicidal action against VERPE; conditions: 320 g/ha
Method in brief: as §1

[7] = tested on: Viola tricolor; experiment: Post-emergence herbicidal action against VIOTR
Method in brief: as §2

[8] = tested on: Abutilon theophrasti; experiment: Post-emergence herbicidal action against ABUTH
Method in brief: as §2

[9] = tested on: Setaria viridis; experiment: Post-emergence herbicidal action against SETVI; conditions: for Post-emergence action against SETVI in %: visual assessment about 3 weeks after treatment
Method in brief: as §2

[10] = tested on: Lolium rigidum; experiment: Pre-emergence herbicidal action against LOLRI
Method in brief: as §1

[11] = tested on: Matricaria inodora; experiment: Post-emergence herbicidal action against MATIN; conditions: for Post-emergence action against MATIN in %: visual assessment about 3 weeks after treatment
Method in brief: as §2

[12] = tested on: Amaranthus retroflexus; experiment: Post-emergence herbicidal action against AMARE; conditions: visual assessment about 3 weeks after treatment
Method in brief: as §2

[13] = tested on: Avena fatua; experiment: Post-emergence herbicidal action against AVEFA; conditions: for Post-emergence action against AVEFA in %: visual assessment about 3 weeks after treatment
Method in brief: as §2

[14] = tested on: Hordeum murinum; experiment: Post-emergence herbicidal action against HORMU
Method in brief: as §2

[15] = tested on: Cyperus esculentus; experiment: Pre-emergence herbicidal action against CYPES; conditions: 320 g/ha; visual score after 3 weeks vs untreated controls
Method in brief: as §1

[16] = tested on: Veronica persica; experiment: Post-emergence herbicidal action against VERPE; conditions: visual assessment about 3 weeks after treatment
Method in brief: as §2

[17] = tested on: Stellaria media; experiment: Pre-emergence herbicidal action against STEME
Method in brief: as §1

[18] = tested on: Stellaria media; experiment: Post-emergence herbicidal action against STEME; conditions: for Post-emergence action against STEME in %: visual assessment about 3 weeks after treatment
Method in brief: as §2

[19] = tested on: Amaranthus retroflexus; experiment: Pre-emergence herbicidal action against AMARE; conditions: visual score after 3 weeks vs untreated controls
Method in brief: as §1

[20] = tested on: Lolium rigidum; experiment: Post-emergence herbicidal action against LOLRI; conditions: 80 g/ha
Method in brief: as §2

[21] = tested on: Polygonum convolvulus; experiment: Pre-emergence herbicidal action against POLCO; conditions: 320 g/ha
Method in brief: as §1

[22] = tested on: Echinochloa crus-galli; experiment: Post-emergence herbicidal action against ECHCG; conditions: visual assessment about 3 weeks after treatment
Method in brief: as §2

[23] = tested on: Hordeum murinum; experiment: Pre-emergence herbicidal action against HORMU; conditions: visual score after 3 weeks vs untreated controls
Method in brief: as §1

[24] = tested on: Matricaria inodora; experiment: Pre-emergence herbicidal action against MATIN; conditions: visual score after 3 weeks vs untreated controls
Method in brief: as §1

[25] = tested on: Viola tricolor; experiment: Pre-emergence herbicidal action against VIOTR
Method in brief: as §1

[26] = tested on: Alopecurus myosuroides; experiment: Post-emergence herbicidal action against ALOMY
Method in brief: as §2

[27] = tested on: Polygonum convolvulus; experiment: Post-emergence herbicidal action against POLCO; conditions: 80 g/ha, visual assessment about 3 weeks after treatment
Method in brief: as §2

[28] = tested on: Pharbitis purpurea; experiment: Pre-emergence herbicidal action against PHBPU; conditions: 320 g/ha; visual score after 3 weeks vs untreated controls
Method in brief: as §1

[29] = tested on: Avena fatua; experiment: Pre-emergence herbicidal action against AVEFA; conditions: visual score after 3 weeks vs untreated controls
Method in brief: as §1

[30] = tested on: Pharbitis purpurea; experiment: Post-emergence herbicidal action against PHBPU; conditions: for Post-emergence action against PHBPU in %: visual assessment about 3 weeks after treatment
Method in brief: as §2

[31] = comparative experiment, 5 g a.i./ha

SMILES: CCn1nnnc1NC(=O)c1ccc(C(F)(F)F)c(C(=O)N(C)C)c1Cl [Example 2-123]
- Pre-emergence action against SETVI ([1]; 20 g/ha): 90%
- Pre-emergence action against SETVI ([1]; 80 g/ha): 100%
- Pre-emergence action against SETVI ([1]; 320 g/ha): 100%
- Post-emergence action against CYPES in % ([2]; 5 g/ha): 80%
- Post-emergence action against CYPES in % ([2]; 20 g/ha): 80%
- Post-emergence action against CYPES in % ([2]; 80 g/ha): 90%
- Pre-emergence action against ABUTH ([3]; 20 g/ha): 100%
- Pre-emergence action against ABUTH ([3]; 80 g/ha): 100%
- Pre-emergence action against ABUTH ([3]; Dosage column 320 g/ha (heading prints 3200 g/ha)): 100%
- Pre-emergence action against ECHCG ([4]; 20 g/ha): 80%
- Pre-emergence action against ECHCG ([4]; 80 g/ha): 100%
- Pre-emergence action against ECHCG ([4]; 320 g/ha): 100%
- Pre-emergence action against ALOMY ([5]; 80 g/ha): 90%
- Pre-emergence action against ALOMY ([5]; 320 g/ha): 100%
- Pre-emergence action against VERPE [6]: 100%
- Post-emergence action against VIOTR in % ([7]; 20 g/ha): 100%
- Post-emergence action against VIOTR in % ([7]; 80 g/ha): 100%
- Post-emergence action against ABUTH ([8]; 5 g/ha): 100%
- Post-emergence action against ABUTH ([8]; 20 g/ha): 100%
- Post-emergence action against ABUTH ([8]; 80 g/ha): 100%
- Post-emergence action against SETVI in % ([9]; 5 g/ha): 100%
- Post-emergence action against SETVI in % ([9]; 20 g/ha): 100%
- Post-emergence action against SETVI in % ([9]; 80 g/ha): 100%
- Herbicidal action against SETVI [9, 31]: 100
- Pre-emergence action against LOLRI ([10]; 80 g/ha): 80%
- Pre-emergence action against LOLRI ([10]; 320 g/ha): 100%
- Post-emergence action against MATIN in % ([11]; 5 g/ha): 90%
- Post-emergence action against MATIN in % ([11]; 20 g/ha): 90%
- Post-emergence action against MATIN in % ([11]; 80 g/ha): 100%
- Herbicidal action against MATIN [11, 31]: 90
- Post-emergence action against AMARE in % ([12]; 5 g/ha): 100%
- Post-emergence action against AMARE in % ([12]; 20 g/ha): 100%
- Post-emergence action against AMARE in % ([12]; 80 g/ha): 100%
- Post-emergence action against AVEFA in % ([13]; 5 g/ha): 80%
- Post-emergence action against AVEFA in % ([13]; 20 g/ha): 100%
- Post-emergence action against AVEFA in % ([13]; 80 g/ha): 100%
- Herbicidal action against AVEFA [13, 31]: 80
- Post-emergence action against HORMU in % ([14]; 20 g/ha): 90%
- Post-emergence action against HORMU in % ([14]; 80 g/ha): 100%
- Pre-emergence action against CYPES [15]: 80%
- Post-emergence action against VERPE in % ([16]; 20 g/ha): 80%
- Post-emergence action against VERPE in % ([16]; 80 g/ha): 100%
- Pre-emergence action against STEME ([17]; 20 g/ha): 90%
- Pre-emergence action against STEME ([17]; 80 g/ha): 100%
- Pre-emergence action against STEME ([17]; 320 g/ha): 100%
- Post-emergence action against STEME in % ([18]; 5 g/ha): 100%
- Post-emergence action against STEME in % ([18]; 20 g/ha): 100%
- Post-emergence action against STEME in % ([18]; 80 g/ha): 100%
- Herbicidal action against STEME [18, 31]: 100
- Pre-emergence action against AMARE ([19]; 20 g/ha): 90%
- Pre-emergence action against AMARE ([19]; 80 g/ha): 100%
- Pre-emergence action against AMARE ([19]; 320 g/ha): 100%
- Post-emergence action against LOLRI in % [20]: 100%
- Pre-emergence action against POLCO [21]: 80%
- Post-emergence action against ECHCG in % ([22]; 5 g/ha): 100%
- Post-emergence action against ECHCG in % ([22]; 20 g/ha): 100%
- Post-emergence action against ECHCG in % ([22]; 80 g/ha): 100%
- Pre-emergence action against HORMU ([23]; 80 g/ha): 80%
- Pre-emergence action against HORMU ([23]; 320 g/ha): 100%
- Pre-emergence action against MATIN ([24]; 80 g/ha): 100%
- Pre-emergence action against MATIN ([24]; 320 g/ha): 100%
- Pre-emergence action against VIOTR ([25]; 80 g/ha): 90%
- Pre-emergence action against VIOTR ([25]; 320 g/ha): 100%
- Post-emergence action against ALOMY ([26]; 5 g/ha): 90%
- Post-emergence action against ALOMY ([26]; 20 g/ha): 100%
- Post-emergence action against ALOMY ([26]; 80 g/ha): 100%
- Herbicidal action against ALOMY [26, 31]: 90
- Post-emergence action against POLCO in % [27]: 90%
- Pre-emergence action against PHBPU [28]: 80%
- Pre-emergence action against AVEFA ([29]; 80 g/ha): 90%
- Pre-emergence action against AVEFA ([29]; 320 g/ha): 100%
- Post-emergence action against PHBPU in % ([30]; 5 g/ha): 80%
- Post-emergence action against PHBPU in % ([30]; 20 g/ha): 90%
- Post-emergence action against PHBPU in % ([30]; 80 g/ha): 100%
- Herbicidal action against PHBPU [30, 31]: 80
